Reference: publication PMC5109486, “Computational Drug Target Screening through Protein Interaction Profiles” (Scientific Reports, 2016)
Read-outs that look alike come from different tables or passages of the source.

Experiments:
[1] = molecular target: T1, hCOX-1 (Homo sapiens, UniProt P23219); experiment: hCOX-1 activity, TMPD oxidation, human platelet microsomes, arachidonic acid substrate; assay type: biochemical; conditions: for inhibition at 25 µM: read-out: % enzymatic inhibition of hCOX-1 at 25 μM, compounds precipitated at higher concentrations
T1 construct: using arachidonic acid as substrate for hCOX-1 from human platelet microsomes; from tissue; host or cells: microsomes of human platelets isolated from buffy coats
Description: Human platelets were isolated by centrifugation from buffy coats obtained from the Centro de Transfusion de Galicia (Santiago de Compostela, Spain) and prepared as described.
The upper layer obtained in this centrifugation, containing platelet rich plasma, was gently removed and centrifuged at 850 g for 20 min at 4 °C in a centrifuge (J2-MI, Beckman Instruments, Inc., Palo Alto, California, USA). The platelet pellet was recovered, resuspended with washing buffer, and centrifuged again at 850 g for 20 min at 4 °C. To prepare human platelet microsomes, the resultant platelet pellet of the above centrifugation was resuspended in 7 mL of sodium phosphate buffer (10 mM, pH 7.4), sonicated at 50 W for 50 s (5 pulses of 10 s), and centrifuged at 850 g for 20 min at 4 °C in a refrigerated centrifuge. The pellet was discarded and the supernatant was subsequently centrifuged at 10 000 g for 10 min at 4 °C in the same centrifuge. The pellet obtained in this centrifugation was discarded and the supernatant was finally centrifuged at 100 000 g for 1 h at 4 °C in an ultracentrifuge (Beckman Instruments, Inc., Palo Alto, California, USA).
The biological evaluation of the test drugs on hCOX-1 activity (bisdioxygenase and peroxidase reactions) was investigated by measuring their effects on the oxidation of N, N, N’, N’-tetramethyl-p-phenylenediamine (TMPD) to N, N, N’, N’-tetramethyl-p-phenylene-diimine, using arachidonic acid as substrate for hCOX-1 from human platelet microsomes (obtained as described in the above paragraph). The formation of N, N, N’, N’-tetramethyl-p-phenylenediimine (a coloured compound) from N, N, N’, N’-tetramethyl-p-phenylenediamine catalyzed by COX can be detected spectrophotometrically at 600 nm. In this study, hCOX activity was evaluated using a spectrophotometric method. Briefly, 0.1 mL of Tris–HCl buffer (100 mM, pH 8) containing […], […], various concentrations of the test drugs, and appropriate amounts of hCOX-1 (0.08 A600 U/min) were incubated for short periods of time (3–5 min) to avoid a notable loss of COX activity at 37 °C in a flat-bottom 96-well microtest plate (BD Biosciences, Franklin Lakes, NJ, USA) placed in the dark multimode microplate reader chamber. After this incubation period, the reaction was started by adding (final concentration) […] and the formation of N, N,N’,N’-tetramethyl-p-phenylenediimine from TMPD, i.e., the increase in absorbance at 600 nm was measured at 37 °C in a multi-mode microplate reader (Fluostar Optima, BMG Labtech GmbH, Offenburg, Germany) for 25 s, aperiod in which the absorbance increased linearly from the beginning. The specific absorbance (used to obtain the final results) was calculated after subtraction of the background absorbance generated in wells containing a blank solution, i.e., all components except the COX isoform, which were replaced by a Tris–HCl buffer solution.
Control experiments were carried out simultaneously by replacing the test drugs (new compounds and reference inhibitors) with appropriate dilutions of the vehicles. In addition, the possible capacity of the above test drugs to modify the absorbance of the reaction mixture due to non-enzymatic inhibition (e.g., for directly reacting with TMPD) was determined by adding these drugs to solutions containing only TMPD in a Tris–HCl buffer solution.

[2] = molecular target: T2, hMAO-B (Homo sapiens, UniProt P27338); experiment: hMAO-B enzymatic inhibition, Amplex Red MAO assay (H2O2 from p-tyramine); assay type: biochemical
T2 construct: purchased Sigma-Aldrich; host or cells: insect cells (BTI-TN-5B1-4) infected with recombinant baculovirus; microsomal preparation
T2 sequence (P27338 1-520): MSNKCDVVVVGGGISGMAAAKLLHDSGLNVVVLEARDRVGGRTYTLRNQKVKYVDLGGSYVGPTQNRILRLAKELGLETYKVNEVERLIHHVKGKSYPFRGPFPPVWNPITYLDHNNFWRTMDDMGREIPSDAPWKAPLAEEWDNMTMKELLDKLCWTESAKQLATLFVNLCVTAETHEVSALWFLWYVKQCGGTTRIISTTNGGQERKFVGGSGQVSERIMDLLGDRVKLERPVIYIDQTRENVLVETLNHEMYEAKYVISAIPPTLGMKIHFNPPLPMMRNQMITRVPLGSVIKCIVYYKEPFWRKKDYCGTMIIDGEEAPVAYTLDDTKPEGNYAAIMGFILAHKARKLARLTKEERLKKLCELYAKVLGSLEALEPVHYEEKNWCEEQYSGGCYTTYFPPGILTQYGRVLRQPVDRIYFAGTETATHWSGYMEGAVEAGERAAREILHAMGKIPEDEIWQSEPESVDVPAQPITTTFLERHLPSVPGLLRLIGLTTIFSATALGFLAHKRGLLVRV
Source text: (§1) The biological evaluation on hMAO activity was investigated by measuring effects on the production of hydrogen peroxide (H2O2) from p-tyramine, using the Amplex® Red MAO assay kit and microsomal isoforms prepared from insect cells (BTI-TN-5B1-4) infected with recombinant baculovirus containing cDNA inserts for hMAO-A and hMAO-B. The production of H2O2 catalysed by the MAO isoforms was detected using 10-acetyl-3,7-dihydroxyphenoxazine (Amplex® Red reagent), a non fluorescent and highly sensitive probe that reacts with H2O2 in the presence of horseradish peroxidase to produce a fluorescent product, resorufin.
The selected compounds were dissolved in DMSO (Sigma-Aldrich, Alcobendas, Madrid, Spain) to prepare 10 mM stock solutions, which were kept for storage at −20 °C. Percentage of DMSO used in the experiments was never higher than 1%. Human recombinant MAO isoforms (native enzymes), used in the experiments, were purchased from Sigma-Aldrich (Alcobendas, Madrid, Spain). Test compounds were acquired from Sigma-Aldrich and Vitro S.A. (Madrid, Spain).
After this incubation period, the reaction was started by adding (final concentrations) 200 μM Amplex® Red reagent, 1 U/mL horseradish peroxidase and 1 mMp-tyramine. […] Control experiments were carried out simultaneously by replacing the test drugs (new compounds and reference inhibitor) with appropriate dilutions of the vehicles. In addition, the possible capacity of the above test drugs to modify the fluorescence generated in the reaction mixture due to non-enzymatic inhibition (e.g., for directly reacting with Amplex® Red reagent) was determined by adding these drugs to solutions containing only the Amplex® Red reagent in a sodium phosphate buffer. To determine the kinetic parameters of hMAO (Km and Vmax), the corresponding enzymatic activity was evaluated (under the experimental conditions described above) in the presence of a number (a wide range) of p-tyramine concentrations.
The specific fluorescence emission (used to obtain the final results) was calculated after subtraction of the background activity, which was determined from wells containing all components except the hMAO, which were replaced by a sodium phosphate buffer solution.

[3] = molecular target: T3, hMAO-A (Homo sapiens, UniProt P21397); experiment: hMAO-A enzymatic inhibition, Amplex Red MAO assay (H2O2 from p-tyramine); assay type: biochemical
T3 construct: purchased Sigma-Aldrich; host or cells: insect cells (BTI-TN-5B1-4) infected with recombinant baculovirus; microsomal preparation
T3 sequence (P21397 1-527): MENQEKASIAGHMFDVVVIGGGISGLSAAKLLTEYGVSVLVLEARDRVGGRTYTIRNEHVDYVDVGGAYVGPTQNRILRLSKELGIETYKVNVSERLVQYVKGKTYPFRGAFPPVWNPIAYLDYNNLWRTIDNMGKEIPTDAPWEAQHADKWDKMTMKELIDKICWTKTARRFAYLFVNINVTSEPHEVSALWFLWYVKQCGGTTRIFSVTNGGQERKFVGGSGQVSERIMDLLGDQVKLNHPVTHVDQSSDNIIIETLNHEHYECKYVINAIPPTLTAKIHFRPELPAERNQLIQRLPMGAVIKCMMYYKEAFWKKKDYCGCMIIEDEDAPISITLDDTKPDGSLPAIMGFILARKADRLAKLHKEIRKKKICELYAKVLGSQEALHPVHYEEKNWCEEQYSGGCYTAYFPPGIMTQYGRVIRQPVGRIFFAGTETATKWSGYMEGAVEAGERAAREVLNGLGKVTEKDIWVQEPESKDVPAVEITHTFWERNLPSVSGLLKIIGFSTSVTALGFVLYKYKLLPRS
Source text: as §1, with “resorufin. […]” for “resorufin.”
After this incubation period, the reaction was started by adding (final concentrations) 200 μM Amplex® Red reagent, 1 U/mL horseradish peroxidase and 1 mMp-tyramine. […] In addition, the possible capacity of the above test drugs to modify the fluorescence generated in the reaction mixture due to non-enzymatic inhibition (e.g., for directly reacting with Amplex® Red reagent) was determined by adding these drugs to solutions containing only the Amplex® Red reagent in a sodium phosphate buffer. To determine the kinetic parameters of hMAO (Km and Vmax), the corresponding enzymatic activity was evaluated (under the experimental conditions described above) in the presence of a number (a wide range) of p-tyramine concentrations. […]

[4] = tested on: hMAO-B; design: method as in PMID 19948168, PMID 14965331; conditions: cited from earlier work
[5] = Table 2, mean ± S.E.M., n = 3, control assays, read-out: IC50 hCOX-1
[6] = Table 3, mean ± S.E.M., n = 3, rational assays selected by the modeling, read-out: IC50 hCOX-1
[7] = Table 2, mean ± S.E.M., n = 3, rational assays selected by the modeling, read-out: IC50 hMAO-B
[8] = highest concentration tested 100 μM, read-out: IC50 hMAO-B (rounded)
[9] = Table 3, mean ± S.E.M., n = 3, control assays, read-out: IC50 hMAO-B
[10] = highest concentration tested 100 μM, read-out: IC50 hCOX-1 (rounded)

T1 sequence (P23219 24-599): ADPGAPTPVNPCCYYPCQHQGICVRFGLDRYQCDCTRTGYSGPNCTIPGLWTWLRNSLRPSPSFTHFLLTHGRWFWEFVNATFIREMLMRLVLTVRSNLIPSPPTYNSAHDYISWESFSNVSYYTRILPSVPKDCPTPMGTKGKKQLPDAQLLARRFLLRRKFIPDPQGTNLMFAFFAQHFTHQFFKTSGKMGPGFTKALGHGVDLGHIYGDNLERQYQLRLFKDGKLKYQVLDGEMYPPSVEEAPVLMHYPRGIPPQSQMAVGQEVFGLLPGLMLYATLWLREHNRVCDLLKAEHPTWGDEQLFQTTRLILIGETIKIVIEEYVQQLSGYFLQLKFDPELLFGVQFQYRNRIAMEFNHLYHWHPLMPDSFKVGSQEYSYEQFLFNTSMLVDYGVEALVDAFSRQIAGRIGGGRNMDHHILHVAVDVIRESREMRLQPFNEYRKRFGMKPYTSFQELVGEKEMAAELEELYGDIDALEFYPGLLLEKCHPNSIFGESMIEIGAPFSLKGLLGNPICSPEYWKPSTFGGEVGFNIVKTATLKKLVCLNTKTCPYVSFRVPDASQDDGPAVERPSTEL

COc1ccc(-c2nc(C(=O)N3CCN(C)CC3)sc2-c2ccc(OC)cc2)cc1 [FR122047]
IC50 [1, 5]: 0.094 ± 0.006 µM | IC50 [1, 6]: 0.094 ± 0.006 µM

COc1ccc2nc(NC(=O)Nc3ccccc3)sc2c1 [Frentizole]
IC50 [2, 7]: > 100 µM | IC50 [2, 8]: > 100 µM | IC50 [1, 5]: > 100 µM | IC50 ([3]; Table 2, mean ± S.E.M., n = 3, control assays, read-out: IC50 hMAO-A): > 100 µM

Cc1cccc(-c2n[nH]cc2-c2ccc3ncccc3n2)n1 [GW786460X]
IC50 [2, 9]: > 100 µM | IC50 [1, 6]: > 100 µM | IC50 [1, 10]: > 100 µM

O=Nc1c(-c2c(O)[nH]c3ccccc23)[nH]c2ccccc12 [Indirubin-3′-monoxime, indirubin-3′-monoxime]
IC50 [2, 9]: > 100 µM | inhibition at 25 µM [1]: 28%

CS(=O)(=O)CCNCc1ccc(-c2ccc3ncnc(Nc4ccc(OCc5cccc(F)c5)c(Cl)c4)c3c2)o1 [Lapatinib, lapatinib]
IC50 [2, 9]: > 100 µM | inhibition at 25 µM [1]: 19.5%

COc1cc(/C=C/C(=O)N2CCC=CC2=O)cc(OC)c1OC [Piperlongumine, piperlongumine]
IC50 [2, 7]: 65.1 ± 2.99 µM | IC50 [2, 8]: 65 µM | IC50 [1]: > 100 µM | IC50 [3]: > 100 µM

O=C1NC(=O)C(c2c[nH]c3ccccc23)=C1c1c[nH]c2ccccc12 [RO-316233]
IC50 [2, 9]: > 100 µM | IC50 [1, 6]: 25.4 ± 3.8 µM | IC50 [1, 10]: 25 µM

Oc1ccc(-c2nc(-c3ccncc3)c(-c3ccc(F)cc3)[nH]2)cc1 [SB-202190]
IC50 [2, 9]: > 100 µM | IC50 [1, 6]: 23.6 ± 3.53 µM | IC50 [1, 10]: 24 µM

NS(=O)(=O)Cc1noc2ccccc12 [zonisamide]
IC50 ([4]; read-out: IC50 of zonisamide (MAO-B)): ~25 µM | Ki ([4]; read-out: Ki of zonisamide (MAO-B)): 3.1 µM
